One data set deals with Spodoptera frugiperda. Put plainly: Spodoptera frugiperda test (SPODFR spray treatment). As to conditions: maize leaf discs, after 7 days. It counts as in vivo. In outline: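 Mortality read-out at 7 days, given as % efficacy, where 100% means every caterpillar dead and 0% none. Caterpillars were placed on dried maize leaf discs that had been sprayed with test formulation. That formulation was an acetone/dimethylformamide concentrate diluted in emulsifier-containing water.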

The test system of a further data set is Tetranychus urticae. The data set is described as follows: Tetranychus test, OP-resistant (TETRUR spray treatment). The class given is in vivo. As to conditions: bean leaf discs, after 6 days. Summed up: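 Bean leaf discs infested with all stages of OP-resistant T. urticae sprayed with compound formulated in acetone/DMF plus alkylaryl polyglycol ether emulsifier, diluted in water. Efficacy (% mites killed) scored after 6 days.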

For a further data set, the system named is Ctenocephalides felis. Put plainly: Ctenocephalides felis oral (CTECFE). The class given is in vivo. As to conditions: application rate 100 ppm in citrated cattle blood; after 2 days. In outline:
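Readout is percent mortality after 2 days (0–100%) in roughly 20 unfed adult fleas. The fleas had imbibed citrated cattle blood dosed with compound through Parafilm, with the compound diluted from a DMSO concentrate.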

The next data set concerns Amblyomma hebraeum. The data set is described as follows: Amblyomma hebaraeum test (AMBYHE). The class given is in vivo. Conditions: application rate 100 ppm; tick nymphs immersed one minute; after 42 days. How it is done: Amblyomma hebaraeum Test (AMBYHE) Solvent: dimethyl sulphoxide To prepare an appropriate active ingredient formulation, 10 mg of active ingredient are mixed with 0.5 ml of dimethyl sulphoxide and the concentrate is diluted with water to the desired concentration. Tick nymphs (Amblyomma hebraeum) are placed into perforated plastic beakers and immersed in the desired concentration for one minute. The ticks are transferred on filter paper into a Petri dish and stored in a climate-controlled cabinet. After 42 days, the kill in % is determined 100% means that all of the ticks have been killed; 0% means that none of the ticks have been killed.

A short description of another data set: logP (HPLC-MS). It counts as physicochemical. As to conditions: HPLC, reversed-phase column (C18), 43° C.
In the next data set the test system is Lucilia cuprina larvae. Put plainly: Lucilia cuprina test (LUCICU). It counts as in vivo. Conditions: application rate 100 ppm; treated horse meat; after 2 days. Summed up: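 Mortality scored as percent of larvae killed 2 days after exposure. Horse meat was treated with the compound, formulated from DMSO stock diluted with water to the test concentration, and populated with roughly 20 larvae.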

The next data set relates to Boophilus microplus. The data set is described as follows: Boophilus microplus test (BOOPMI injection). The class given is in vivo. As to conditions: application rate 20 μg/animal; injected into the abdomen; after 7 days. Summed up: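 Read-out after 7 days is % efficacy, judged by fertile egg laying, with 100% meaning no fertile eggs from any tick. Compound was given by abdominal injection as a DMSO solution diluted to the desired concentration. Treated ticks were held in dishes in a climate-controlled room.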

The next data set relates to adult Musca domestica. Put plainly: Musca domestica test (MUSCDO). The class given is in vivo. As to conditions: application rate 100 ppm; treated sponge; after 2 days. In outline:
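After 2 days' exposure to a treated sponge, adult house fly mortality was recorded as kill %. Formulation: active ingredient in dimethyl sulphoxide, then water dilution to the test concentration.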

The test system of the next data set is Phaedon cochleariae. Put plainly: Phaedon test (PHAECO spray treatment). Conditions: Chinese cabbage leaf discs, after 7 days. It counts as in vivo. Summed up:
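Larval mortality was assessed 7 days after Phaedon cochleariae larvae were placed on dried, spray-treated Brassica pekinensis leaf discs. The formulation was an acetone/dimethylformamide concentrate with alkylaryl polyglycol ether emulsifier, diluted in emulsifier-containing water. Results are given as % kill, from 0 (no larvae dead) to 100 (all dead).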

For data set [1], the system named is adult engorged Boophilus microplus females of the SP-resistant Parkhurst strain. Put plainly: Boophilus microplus test (DIP). It counts as in vivo. As to conditions: application rate 100 ppm, after 7 days. The method, then: Boophilus microplus Test (DIP)
Test animals: adult engorged Boophilus microplus females of the SP-resistant Parkhurst strain
Solvent: dimethyl sulphoxide
10 mg of active ingredient are dissolved in 0.5 ml of dimethyl sulphoxide. For the purpose of preparing a suitable formulation, the active ingredient solution is diluted with water to the concentration desired in each case.
This active ingredient formulation is pipetted into tubes. 8-10 ticks are transferred into a further tube with holes. The tube is immersed into the active ingredient formulation, and all ticks are completely wetted. After the liquid has run out, the ticks are transferred onto filter discs in plastic dishes and stored in a climate-controlled room.
The activity is assessed after 7 days by laying of fertile eggs. Eggs whose fertility is not outwardly visible are stored in glass tubes in a climate-controlled cabinet until the larvae hatch. An efficacy of 100% means that none of the ticks has laid any fertile eggs.

In the next data set the test system is Myzus persicae. Put plainly: Myzus test (MYZUPE spray treatment). It counts as in vivo. As to conditions: application rate 100 g/ha; Chinese cabbage leaf discs; after 6 days. The method, then: Myzus Test (MYZUPE Spray Treatment) Solvent: 78 parts by weight of acetone • • 1.5 parts by weight of dimethylformamide Emulsifier: 0.5 part by weight of alkylaryl polyglycol ether To produce an appropriate active ingredient formulation, 1 part by weight of active ingredient is mixed with the stated amounts of solvent and emulsifier, and the concentrate is diluted with emulsifier-containing water to the desired concentration. Leaf discs of Chinese cabbage (Brassica pekinensis) infested by all stages of the green peach aphid (Myzus persicae) are sprayed with an active ingredient formulation of the desired concentration. After 6 days, the efficacy in % is determined. 100% means that all of the aphids have been killed; 0% means that none of the aphids have been killed.

The mark [2] stands for this setting: acidic range pH 2.7, acetonitrile (0.1% formic acid)/water gradient, calibration with unbranched alkan-2-ones.

Consider `C#CCn1c(C(=O)NC(c2ccc(F)c(Br)c2)C(F)(F)F)cc2cc(C(=O)NC3CC3)c(Cl)cc21` (stereo not drawn) [Compound 14], for which the efficacy in % in the data set on Spodoptera frugiperda (application rate 500 g/ha), in the data set on Tetranychus urticae (application rate 500 g/ha) and in the data set on Phaedon cochleariae (application rate 500 g/ha) was 100% in each case. Further, the “efficacy (kill in %)” value in the data set on Ctenocephalides felis, in the data set on Amblyomma hebraeum, with Lucilia cuprina larvae and in the data set on adult Musca domestica was 100% throughout. Also, the log p in “logP (HPLC-MS)” (setting [2]) is recorded as 3.52. Also, the “efficacy (laying of fertile eggs)” value in the data set on Boophilus microplus is 100%.
In the case of `CCn1c(C(=O)NC(c2ccc(F)c(Cl)c2)C(F)(F)F)cc2cc(C(=O)NC3CC3)c(Cl)cc21` (stereo not drawn) [Compound 18], the efficacy in % with Spodoptera frugiperda (application rate 100 g/ha) is listed as 100%; in the data set on Tetranychus urticae (application rate 100 g/ha), 90%; with Phaedon cochleariae (application rate 100 g/ha), 100%. For the same molecule, the “efficacy (kill in %)” value in the data set with Ctenocephalides felis, with Lucilia cuprina larvae and in the data set with adult Musca domestica was 100% in each case. In addition, the “efficacy (laying of fertile eggs)” value in [1] was 80%; in the data set on Boophilus microplus, 100%. In addition, in “logP (HPLC-MS)” (setting [2]), the log p was 3.82.
Regarding `CCn1c(C(=O)NC(c2cccc(OC(F)F)c2)C(F)(F)F)cc2cc(C(=O)NC3CC3)c(Cl)cc21` (stereo not drawn) [Compound 276], the efficacy in % stood at 100% in the data set on Spodoptera frugiperda (application rate 100 g/ha), 90% in the data set on Tetranychus urticae (application rate 100 g/ha), 90% in the data set on Myzus persicae and 100% in the data set with Phaedon cochleariae (application rate 100 g/ha). Also, the “efficacy (kill in %)” value in the data set on Ctenocephalides felis, in the data set on Lucilia cuprina larvae and in the data set on adult Musca domestica was 100% each time. The same molecule returned a log p in “logP (HPLC-MS)” (setting [2]) of 3.48. Also, the “efficacy (laying of fertile eggs)” value in the data set with Boophilus microplus was determined as 100%.
Regarding `CCc1cc2c(cc1C(=O)NC1(C#N)CC1)cc(C(=O)NC(c1cccc(C(F)(F)F)c1)C(F)(F)F)n2CC` (stereo not drawn) [Compound 282], the efficacy in % is 100% in the data set on Spodoptera frugiperda (application rate 100 g/ha), 100% in the data set on Tetranychus urticae (application rate 100 g/ha), 80% in the data set with Myzus persicae and 100% in the data set with Phaedon cochleariae (application rate 100 g/ha). The “efficacy (kill in %)” value with Ctenocephalides felis is 100%; with Lucilia cuprina larvae it was 100%; with adult Musca domestica, 90%. The log p in the data set “logP (HPLC-MS)” (acidic range pH 2.7, EEC directive 79/831 Annex V.A8, two values = both regioisomers (G = N)) amounted to 3.98. In addition, in the data set with Boophilus microplus, the “efficacy (laying of fertile eggs)” value is on record as 100%.

Values taken from patent US9107411B2, “Indolecarboxamides and benzimidazolecarboxamides as insecticides and acaricides” (BAYER INTELLECTUAL PROPERTY GMBH, priority 2011, dated 2015).
